# Assays:
# [1] = system: human CD34^+ cord blood (hCD34^+ CB) cells; assay: In vitro chemotaxis assay towards SDF1α; format: cell-based; details: 10 μM, 4 hours, 37° C.; 50 ng/ml SDF1α vs DMSO or 0 ng/ml SDF1α
# Protocol: Chemotaxis assays were performed using 96-well chemotaxis chambers, […] pore size polycarbonate membrane (Corning Inc., Corning, N.Y.) in accordance with manufacturer's instructions. Briefly, human CD34^+ cord blood (hCD34^+ CB) cells were obtained from All Cells and were thawed according to manufacturer's instruction. The cells were then treated for 4 hours at 37° C. with 16,16-dimethyl PGE2 or DMSO control at a concentration of 10 μM in StemSpan media (Stem Cell Technology, Vancouver, Canada). The cells were then washed by centrifugation (300 g for 10 minutes) and resuspended in transwell assay buffer (Phenol Red Free RPMI media (Mediatech), 0.5% lipid free BSA (Sigma-Aldrich) at a concentration of 40,000-60,000 cells/75 ul. Seventy-five μl of cell suspension was added to the upper chamber of the plate, while 235 μl of transwell assay media containing 0 or 50 ng/ml SDF1α (R&D system, Minneapolis, Minn.) was added to the bottom well. Total cell number in the lower well was obtained by flow cytometry, using 7AAD (BD Biosciences) to exclude dead cells, after 4 hours of incubation at 37° C., 5% CO2. […] Percent migration was calculated by dividing the number of the cells in the lower well by the total cell input multiplied by 100. Samples were analyzed in triplicate, the data was then averaged for statistical analysis.
# human CD34^+ cells = assay: Microfluidic qPCR using the Fluidigm platform (signature genes of Table 3); format: cell-based; details: 37° C.
# Protocol: Real-time PCR transcript quantitation from 16,16-dimethyl PGE2 ex vivo treated CD34+ cell samples was performed using the BioMark Dynamic Array microfluidics system (Fluidigm Corporation, South San Francisco, Calif., USA). Total RNA was isolated from treated cells using Pico Pure RNA Isolation Kit (Molecular Devices, Sunnyvale, Calif., USA). Complimentary DNA (cDNA) was reverse transcribed from 50 ng of isolated total RNA using the High-Capacity cDNA Reverse Transcription Kit (Life Technologies Corporation, Carlsbad, Calif., USA).
# cDNA was pre-amplified for specific target genes (96) using a 200 nM mixture of 96 gene specific primer pairs (see Table 1), including 6 reference control genes using the TaqMan PreAmp Master Mix Kit (Life Technologies) protocol. Specific target amplification (STA) from cDNA was performed using 14 cycles of amplification with the standard cycling conditions using the manufacturer's protocol. EvaGreen dye (Biotium, Inc. Hayward, Calif., USA) was added according to Fluidigm's EvaGreen protocol to detect amplified products. For samples, the reaction mix contained 3.0 μL Gene Expression Master Mix (Life Tech.), 0.3 μL Sample Loading Buffer (Fluidigm), 0.3 μL 20× EvaGreen dye (Biotium, Inc.), 1.5 μL diluted (1:5 sterile nH2O) STA cDNA, and 0.9 μL sterile diH2O for loading into the sample inlets of the 96.96 Dynamic Array (Fluidigm).
# Samples were run in replicates, from 5 to 9 wells. For primer pairs, the reaction mix contained 2.5 μL Gene Specific Primer pairs (20 μM) and 2.5 μL Assay Loading Buffer (Fluidigm) for loading into the assay inlets on the 96.96 Dynamic Array (Fluidigm). 96.96 Dynamic arrays were loaded using a NanoFlex IFC Controller HX (Fluidigm) and real-time reactions were performed using a BioMark Real-Time PCR System (Fluidigm).
# Results were analyzed using BioMark Real-Time PCR Analysis software. Average Cts were calculated from the sample replicates and delta-delta Cts (ΔΔCt) were calculated using the mean of 6 reference genes (ACTB, GAPDH, HPRT1, QARS, ARPC2 and LRIG2) against a vehicle only sample. Cts above 28 or amplified products with inappropriate melting curve properties were excluded from the calculations.
# A microfluidic qPCR platform was also used to measure expression changes of a 16,16-dimethyl PGE2 gene expression signature of the genes listed in Table 3 in human CD34^+ cells at different incubation times.
# Further, gene expression signatures were measured on cells that received short pulse treatments with 16,16-dimethyl PGE2 followed by a recovery period in the absence of the drug. Human CD34^+ cells were incubated for different times in the presence of 16,16-dimethyl PGE2 followed by a wash and recovery period in media designed to reflect the in vivo setting. The experimental design matched the ex vivo treatment paradigm where cells are treated, washed to remove the drug and then administered to the patient. CD34^+ cells were incubated with 16,16-dimethyl PGE2 at 37° C. for 5, 15, 30, 60, or 120 minutes and the gene expression signatures were analyzed. For incubation periods less than 120 minutes, the cells were washed in media to remove the 16,16-dimethyl PGE2 and then the cells were incubated for the remaining period in media to allow time for gene expression to take place.
# [2] = system: Whole cord blood cells or CD34^+ cells; assay: Cell viability assay (7-AAD staining); format: cell-based, human
# Protocol: Whole cord blood cells or CD34^+ cells obtained from Stem Cell Technologies (Vancouver, Canada) were aliquoted equally in Eppendorf tubes and treated ex vivo at a range of 16,16-dimethyl PGE2 concentrations (10 μM to 100 μM) or DMSO control; temperatures (4° C., 22° C., or 37° C.) for 60 or 120 minutes in LMD/5% HSA media. After treatment, an aliquot of the incubated cells were assayed using 7-Amino-Actinomycin D (7-AAD) staining as an indicator of cell death. One million whole cord blood were stained with 5 μL of 7AAD staining solution (BD Bioscience, San Jose, Calif.), or 200,000 CD34^+ cord blood cells were stained with 1 μL 7-AAD solution. Cells were analyzed on a Guava EasyCyte 8HT System (Millipore) and with the FlowJo software package (Tree Star Inc., Ashland, Oreg.). A separate aliquot of the same cells were also taken for assessment of proliferation potential using CFU-C assays (discussed below in Example 4).
smiles,measurement,setting,value
"CCCCC(C)(C)[C@H](O)/C=C/[C@H]1[C@H](O)CC(=O)[C@@H]1C/C=C\CCCC(=O)O [16,16-dimethyl PGE2]",number of migrating CD34+ cells,[1],significantly increased
same,pulse incubation giving maximal gene expression changes,human CD34^+ cells; 10 μM,about 2 hours
same,constant exposure after which suitable gene expression signatures were detectable,"human CD34^+ cells; 10 μM, FIG. 14A",at least 60 minutes
same,constant exposure giving maximal gene expression response,"human CD34^+ cells; 10 μM, FIG. 14A-B",after at least about two hours
same,pulse incubation after which recognizable gene expression signatures were observed,"human CD34^+ cells; 10 μM, recovery to 120 minutes total",about 30 minutes
same,gene expression response to short pulse treatments (5-15 minutes),"human CD34^+ cells; 10 μM, recovery to 120 minutes total, FIGS. 15A-15B",not sufficient
same,concentration at which the gene expression signature was maximal,"human CD34^+ cells; 2 hours, FIGS. 16A-16B",10 µM
same,cell viability (FIG. 10),"[2]; CD34+ cells, 10 μM, 120 minutes, 37° C. vs vehicle or 4° C.",does not decrease cell viability
same,cell viability (7-AAD),"[2]; whole cord blood cells or CD34+ cells, high temperatures, relatively long incubation periods vs other conditions",did not decrease cell viability
